As a reminder, the IC50 is the concentration needed to halve the response being measured.

This test deals with TBK1 (Homo sapiens (Human), UniProt Q9UHD2). Put plainly: TBK1 low ATP kinase assay (in vitro assay 1). The class given is biochemical. The conditions noted are these: in vitro assay 1, read-out: TBK1 low ATP kinase assay IC50.
Sequence of TBK1 (Q9UHD2 whole entry): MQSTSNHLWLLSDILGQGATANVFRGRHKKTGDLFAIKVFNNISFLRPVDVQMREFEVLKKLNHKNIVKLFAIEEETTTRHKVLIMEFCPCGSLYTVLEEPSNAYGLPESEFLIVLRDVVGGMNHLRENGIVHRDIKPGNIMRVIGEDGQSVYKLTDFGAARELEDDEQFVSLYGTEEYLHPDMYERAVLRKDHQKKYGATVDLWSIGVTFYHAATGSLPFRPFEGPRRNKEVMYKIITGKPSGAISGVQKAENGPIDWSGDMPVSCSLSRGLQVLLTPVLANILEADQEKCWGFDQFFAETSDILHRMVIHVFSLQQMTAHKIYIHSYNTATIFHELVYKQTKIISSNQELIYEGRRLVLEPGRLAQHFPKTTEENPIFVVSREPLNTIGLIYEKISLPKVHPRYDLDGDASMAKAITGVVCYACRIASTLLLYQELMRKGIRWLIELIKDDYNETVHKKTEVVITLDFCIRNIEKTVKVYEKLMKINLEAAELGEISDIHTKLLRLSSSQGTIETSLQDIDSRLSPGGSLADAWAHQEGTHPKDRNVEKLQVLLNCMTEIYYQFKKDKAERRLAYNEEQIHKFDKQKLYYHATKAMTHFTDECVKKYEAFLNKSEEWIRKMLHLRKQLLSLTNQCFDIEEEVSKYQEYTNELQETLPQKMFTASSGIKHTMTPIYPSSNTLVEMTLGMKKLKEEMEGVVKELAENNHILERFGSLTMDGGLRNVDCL
Take `CC(c1ccnc(Nc2nc3ccc(-c4cnn(CC5CC5)c4)c(F)c3[nH]2)c1)N1CCN(C(=O)C2CC2)CC1` (single isomer, unassigned) [Example 121.03, cyclopropyl(4-{(1R or 1S)-1-[2-({6-[1-(cyclopropylmethyl)-1H-pyrazol-4-yl]-7-fluoro-1H-benzimidazol-2-yl}amino)pyridin-4-yl]ethyl}piperazin-1-yl)methanone]: the IC50 was 0.0016 µM. As for `CSc1ncc(-c2ccc3nc(Nc4cc(CN5CCN(C(=O)C6CC6)CC5)ccn4)[nH]c3c2)cn1` [Example 45.05.03, cyclopropyl(4-{[2-({6-[2-(methylsulfanyl)pyrimidin-5-yl]-1H-benzimidazol-2-yl}amino)pyridin-4-yl]methyl}piperazin-1-yl)methanone], the IC50 came out at 0.84 µM. Regarding `CN(C)c1cc(-c2ccc3nc(Nc4cc(CN5CCN(C(=O)CC(F)(F)F)CC5)ccn4)[nH]c3c2)ncn1` [Example 143.02, 1-(4-{[2-({6-[6-(dimethylamino)pyrimidin-4-yl]-1H-benzimidazol-2-yl}amino)pyridin-4-yl]methyl}piperazin-1-yl)-3,3,3-trifluoropropan-1-one], the IC50 amounted to 0.0082 µM. `CC(c1ccnc(Nc2nc3ccc(-c4cnn(CC5CC5(F)F)c4)cc3[nH]2)c1)N1CCN(C(=O)OC(C)(C)C)CC1` (single isomer, unassigned) [Example 55.01.02, tert-butyl 4-[(1R or 1S)-1-(2-{[6-(1-{[(1R or 1S)-2,2-difluorocyclopropyl]methyl}-1H-pyrazol-4-yl)-1H-benzimidazol-2-yl]amino}pyridin-4-yl)ethyl]piperazine-1-carboxylate]: the IC50 was found to be 0.0048 µM. As for `COc1c(OCC2CC2)ncnc1-c1ccc2nc(Nc3cc(CN4CCN(C(=O)OC(C)(C)C)CC4)ccn3)[nH]c2c1` [Example 65.01.01, tert-butyl 4-{[2-({6-[6-(cyclopropylmethoxy)-5-methoxypyrimidin-4-yl]-1H-benzimidazol-2-yl}amino)pyridin-4-yl]methyl}piperazine-1-carboxylate], the IC50 worked out at 0.255 µM. As for `O=C(C1CC1)N1CCN(Cc2ccnc(Nc3nc4ccc(-c5cc(OCC6CC6)ncn5)cc4[nH]3)c2)CC1` [Example 80.03, cyclopropyl(4-{[2-({6-[6-(cyclopropylmethoxy)pyrimidin-4-yl]-1H-benzimidazol-2-yl}amino)pyridin-4-yl]methyl}piperazin-1-yl)methanone], the IC50 was 0.0029 µM.

For `O=C(C1CC1)N1CCN(Cc2ccnc(Nc3nc4ccc(-c5cnn(CC6CCC6)c5)cc4[nH]3)c2)CC1` [Example 59.02.02, (4-{[2-({6-[1-(cyclobutylmethyl)-1H-pyrazol-4-yl]-1H-benzimidazol-2-yl}amino)pyridin-4-yl]methyl}piperazin-1-yl)(cyclopropyl)methanone], the 50% inhibitory concentration (IC50) came to 0.00671 µM. `CCOc1nccc(-c2ccc3nc(Nc4cc(C(C)N5CCN(C(=O)CC(F)(F)F)CC5)ccn4)[nH]c3c2)n1` (single isomer, unassigned) [Example 26.03.01.B, 1-{4-[(1S or 1R)-1-(2-{[6-(2-ethoxypyrimidin-4-yl)-1H-benzimidazol-2-yl]amino}pyridin-4-yl)ethyl]piperazin-1-yl}-3,3,3-trifluoropropan-1-one]: the IC50 was found to be 0.0195 µM. For the molecule `Cc1cc(-c2ccc3nc(Nc4cc(CN5CCN(C(=O)CC(F)(F)F)CC5)ccn4)[nH]c3c2)ccn1` [Example 01.03, 3,3,3-trifluoro-1-{4-[(2-{[6-(2-methylpyridin-4-yl)-1H-benzimidazol-2-yl]amino}pyridin-4-yl)methyl]piperazin-1-yl}propan-1-one], the IC50 amounted to 0.0535 µM. Regarding `Cc1ncc(-c2ccc3nc(Nc4cc(CN5CCN(C(=O)CC(F)(F)F)CC5)ccn4)[nH]c3c2)cn1` [Example 45.03.01, 3,3,3-trifluoro-1-{4-[(2-{[6-(2-methylpyrimidin-5-yl)-1H-benzimidazol-2-yl]amino}pyridin-4-yl)methyl]piperazin-1-yl}propan-1-one], the IC50 came out at 3.79 µM. Turning to `COCCCNc1cc(-c2ccc3nc(Nc4cc(CN5CCN(C(=O)OC(C)(C)C)CC5)ccn4)[nH]c3c2)ncn1` [Example 90.01, tert-butyl 4-({2-[(6-{6-[(3-methoxypropyl)amino]pyrimidin-4-yl}-1H-benzimidazol-2-yl)amino]pyridin-4-yl}methyl)piperazine-1-carboxylate], the IC50 amounted to 0.0057 µM. `C[C@H](c1ccnc(Nc2nc3ccc(-c4cc(OCC(F)(F)F)ncn4)cc3[nH]2)c1)N1CCN(C(=O)CC(F)(F)F)CC1` [Example 119.02, 3,3,3-trifluoro-1-(4-{(1R)-1-[2-({6-[6-(2,2,2-trifluoroethoxy)pyrimidin-4-yl]-1H-benzimidazol-2-yl}amino)pyridin-4-yl]ethyl}piperazin-1-yl)propan-1-one]: the IC50 was 0.00669 µM.

With `CC(c1ccnc(Nc2nc3ccc(-c4cnn(CC5CC5(F)F)c4)cc3[nH]2)c1)N1CCN(C(=O)C2CC2)CC1` (single isomer, unassigned) [Example 55.03.01, cyclopropyl{4-[(1R or 1S)-1-(2-{[6-(1-{[(1R or 1S)-2,2-difluorocyclopropyl]methyl}-1H-pyrazol-4-yl)-1H-benzimidazol-2-yl]amino}pyridin-4-yl)ethyl]piperazin-1-yl}methanone], the IC50 is 0.00061 µM. For `CC(c1ccnc(Nc2nc3ccc(-c4cc(C(F)(F)F)nn4C)cc3[nH]2)c1)N1CCN(C(=O)CC(F)(F)F)CC1` (single isomer, unassigned) [Example 88.02, 3,3,3-trifluoro-1-(4-{(1R or 1S)-1-[2-({6-[1-methyl-3-(trifluoromethyl)-1H-pyrazol-5-yl]-1H-benzimidazol-2-yl}amino)pyridin-4-yl]ethyl}piperazin-1-yl)propan-1-one], the 50% inhibitory concentration (IC50) came to 0.86 µM.

In the case of `CC(C)N(C)c1cc(-c2ccc3nc(Nc4cc(CN5CCN(C(=O)OC(C)(C)C)CC5)ccn4)[nH]c3c2)ncn1` [Example 153.01, tert-butyl 4-({2-[(6-{6-[methyl(propan-2-yl)amino]pyrimidin-4-yl}-1H-benzimidazol-2-yl)amino]pyridin-4-yl}methyl)piperazine-1-carboxylate], the IC50 is 0.014 µM. In the case of `CC1CC1Cn1cc(-c2ccc3nc(Nc4cc(C(C)N5CCN(C(=O)OC(C)(C)C)CC5)ccn4)[nH]c3c2)cn1` (single isomer, unassigned) [Example 56.01, tert-butyl 4-[(1R or 1S)-1-(2-{[6-(1-{[(1RS,2RS)-2-methylcyclopropyl]methyl}-1H-pyrazol-4-yl)-1H-benzimidazol-2-yl]amino}pyridin-4-yl)ethyl]piperazine-1-carboxylate], the IC50 came out at 0.0165 µM. For the molecule `CC(c1ccnc(Nc2nc3ccc(-c4cc(OCC(F)(F)F)ncn4)cc3[nH]2)c1)N1CCN(C(=O)C2(C(F)(F)F)CC2)CC1` (single isomer, unassigned) [Example 119.04, (4-{(1R or 1S)-1-[2-({6-[6-(2,2,2-trifluoroethoxy)pyrimidin-4-yl]-1H-benzimidazol-2-yl}amino)pyridin-4-yl]ethyl}piperazin-1-yl)[1-(trifluoromethyl)cyclopropyl]methanone], the IC50 is 0.0109 µM. As for `COc1cncnc1-c1ccc2nc(Nc3cc(C(C)N4CCN(C(=O)CC5CC5)CC4)ccn3)[nH]c2c1` (single isomer, unassigned) [Example 35.03.02.A, 2-cyclopropyl-1-{4-[(1R or 1S)-1-(2-{[6-(5-methoxypyrimidin-4-yl)-1H-benzimidazol-2-yl]amino}pyridin-4-yl)ethyl]piperazin-1-yl}ethanone], the IC50 is 0.00833 µM.

As for `COc1c(C)ncnc1-c1ccc2nc(Nc3cc(CN4CCN(C(=O)CC(F)(F)F)CC4)ccn3)[nH]c2c1` [Example 61.01.01, 3,3,3-trifluoro-1-{4-[(2-{[6-(5-methoxy-6-methylpyrimidin-4-yl)-1H-benzimidazol-2-yl]amino}pyridin-4-yl)methyl]piperazin-1-yl}propan-1-one], the IC50 amounted to 0.0197 µM. Turning to `CCn1cc(-c2ccc3nc(Nc4cc(CN5CCN(C(=O)C6CC6)CC5)ccn4)[nH]c3c2)cn1` [Example 38.03, cyclopropyl{4-[(2-{[6-(1-ethyl-1H-pyrazol-4-yl)-1H-benzimidazol-2-yl]amino}pyridin-4-yl)methyl]piperazin-1-yl}methanone], the IC50 turned out to be 0.0558 µM.

Take `CC(c1ccnc(Nc2nc3ccc(-c4cc(N5CCCC5)ncn4)cc3[nH]2)c1)N1CCN(C(=O)C2(C)CC2(F)F)CC1` (single isomer, unassigned) [Example 117.06, [(1RS)-2,2-difluoro-1-methylcyclopropyl](4-{(1R or S)-1-[2-({6-[6-(pyrrolidin-1-yl)pyrimidin-4-yl]-1H-benzimidazol-2-yl}amino)pyridin-4-yl]ethyl}piperazin-1-yl)methanone]: the IC50 was determined as 0.00086 µM. The figure for `Cc1c(-c2ccc3nc(Nc4cc(CN5CCN(C(=O)C6CC6)CC5)ccn4)[nH]c3c2)ccnc1OC(C)C` [Example 11.01, cyclopropyl(4-{[2-({6-[3-methyl-2-(propan-2-yloxy)pyridin-4-yl]-1H-benzimidazol-2-yl}amino)pyridin-4-yl]methyl}piperazin-1-yl)methanone] is 3.61 µM; for `O=C(CC(F)(F)F)N1CCN(Cc2ccnc(Nc3nc4ccc(-c5cc(OCC6CCC6)ncn5)cc4[nH]3)c2)CC1` [Example 159.02, 1-(4-{[2-({6-[6-(cyclobutylmethoxy)pyrimidin-4-yl]-1H-benzimidazol-2-yl}amino)pyridin-4-yl]methyl}piperazin-1-yl)-3,3,3-trifluoropropan-1-one] it is 0.015 µM. The figure for `CC(C)(O)c1cc(-c2ccc3nc(Nc4cc(CN5CCN(C(=O)CC(F)(F)F)CC5)ccn4)[nH]c3c2)ncn1` [Example 96.02, 3,3,3-trifluoro-1-(4-{[2-({6-[6-(2-hydroxypropan-2-yl)pyrimidin-4-yl]-1H-benzimidazol-2-yl}amino)pyridin-4-yl]methyl}piperazin-1-yl)propan-1-one] is 0.022 µM; for `Cc1cc(-c2ccc3nc(Nc4cc(CN5CCN(C(=O)C6CC6)CC5)ccn4)[nH]c3c2)ccn1` [Example 01.02, cyclopropyl{4-[(2-{[6-(2-methylpyridin-4-yl)-1H-benzimidazol-2-yl]amino}pyridin-4-yl)methyl]piperazin-1-yl}methanone] it is 0.042 µM.
